The text below walks through data of patent publication US5459152A, “Platelet activating factor antagonists” (Abbott Laboratories, priority 1993, dated 1995).

This test concerns the target T1, PAF receptor (Oryctolagus cuniculus, UniProt G1TEI7).
T1 construct: platelet membranes where prepared by centrifugation and washing; tissue Pel-Freez (Rogers, AR) (whole rabbit blood); host or cells: rabbit platelet membranes
Nature of the test: PAF receptor binding assay ([3H]C18-PAF, rabbit platelet membranes). To be noted: read-out: PAF Receptor Binding Activity K1. As for the experimental part:
The ability of representative compounds of the present invention to inhibit PAF activity was determined in an in vitro test using the following method.
Citrated whole rabbit blood was obtained from Pel-Freez (Rogers, AR). Rabbit platelets where prepared by centrifugation and washing. The platelets where lysed by freeze-thawing and sonication; platelet membranes where prepared by centrifugation and washing. Final membrane preparations where stored frozen in 10 mM Tris/5 mM MgCl2 /2 mM EDTA (TME buffer, pH 7.0) with 0.25 M sucrose added for membrane stabilization.
The final volume of the assay was 100 μl. The assay was conducted in Millititre-GV™ (Millipore Corp.) filtration plates; incubation time was for 60 minutes at room temperature (22°-23° C.). "Specific binding" was operationally defined as the arithmetic difference between "total binding" of 0.6 nM [^3 H]C18 -PAF (in the absence of added PAF) and "nonspecific binding" (in the presence of 1 μM PAF). After the prescribed incubation, platelet membranes where filtered under vacuum and washed with 1 millilitre of "binding buffer". The filters was dried and removed. The bound radioactivity was quantitated with a Berthold TLC-Linear Analyzer model LB2842.
Experiments where repeated at least once.

Each structure is given as a SMILES string. Counter-ions that a name gives are not always drawn.

T1 sequence (G1TEI7 1-342): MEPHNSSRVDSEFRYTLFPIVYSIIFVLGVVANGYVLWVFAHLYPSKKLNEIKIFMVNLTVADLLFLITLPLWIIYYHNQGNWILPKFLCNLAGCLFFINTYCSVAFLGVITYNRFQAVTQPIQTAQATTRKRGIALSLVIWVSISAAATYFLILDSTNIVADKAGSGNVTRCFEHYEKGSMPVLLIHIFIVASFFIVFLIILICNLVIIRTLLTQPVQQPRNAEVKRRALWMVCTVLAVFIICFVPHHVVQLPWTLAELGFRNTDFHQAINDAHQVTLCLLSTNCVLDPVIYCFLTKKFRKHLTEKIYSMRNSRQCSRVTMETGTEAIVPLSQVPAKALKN

Consider `CN(C)C(=O)n1cc(C(=O)c2ccn3c2CSC3c2cccnc2)c2ccc(-c3cccs3)cc21` (stereo not shown) [Example 101, 3-(Pyridin-3-yl)-7-(1-N,N-dimethylcarbamoyl-6-thiophen-2-ylindol-3-ylcarbonyl)-1H,3H-pyrrolo[1,2-c]thiazole], for which the Ki was 0.95 nM.
To `CN(C)C(=O)n1cc(C(=O)c2ccn3c2C(C)(C)SC3c2cccnc2)c2ccc(-c3ccccc3)cc21` (stereo not shown) [Example 24, 1,1-Dimethyl-3-(pyridin-3-yl)-7-(1-N,N-dimethylcarbamoyl-6-phenylindol-3-ylcarbonyl)-1H,3H-pyrrolo[1,2-c]thiazole] belongs 51 nM; to `ON=C(c1ccn2c1CSC2c1cccnc1)c1c[nH]c2cc(-c3ccc(F)cc3)ccc12` (stereo not shown) [Example 83, 3-(Pyridin-3-yl)-7-[6-(4-fluorophenyl)indol-3-ylcarbonyloxime]-1H,3H-pyrrolo[1,2-c]thiazole], 10.7 nM; to `CN(C)C(=O)n1cc(C(=O)c2ccn3c2C[S+]([O-])C3c2cccnc2)c2ccc(-c3ccccc3)cc21` (stereo not shown) [Example 23, 2-Oxide-3-(pyridin-3-yl)-7-(1-N,N-dimethylcarbamoyl-6-phenyllindol-3-ylcarbonyl)-1H,3H-pyrrolo[1,2-c]thiazole], 95 nM.
Turning to `CN(C)C(=O)n1cc(C(=O)c2ccn3c2CSC3c2cccnc2)c2ccc(-c3cnc(N)nc3)cc21` (stereo not shown) [Example 89], the Ki was determined as 280 nM.
As to `CN(C)C(=O)Cn1cc(C(=O)c2ccn3c2CSC3c2cccnc2)c2ccc(-c3ccc(F)cc3)cc21` (stereo not shown) [Example 53, 3-(Pyridin-3-yl)-7-[1-(2-N,N-dimethylcarbamoylmethyl)-6-(4-fluorophenyl)indol-3-ylcarbonyl]-1H,3H-pyrrolo[1,2-c]thiazole], the Ki is 0.7 nM.
Then `CN(C)C(=O)n1cc(C(=O)c2ccn3c2CSC3c2cccnc2)c2ccc(-c3ccc(C(=O)NN)cc3)cc21` (stereo not shown) [Example 91, 3-(1-Oxide-pyridin-3-yl)-7-[1-N,N-dimethylcarbamoyl-6-(4-hydrazinylcarbonylphenyl)indol-3-ylcarbonyl]-1H,3H-pyrrolo[1,2-c]thiazole], with 20 nM.
Regarding `O=C(c1ccn2c1CSC2c1cccnc1)c1cn(S(=O)(=O)c2ccccc2)c2cc(-c3ccc(F)cc3)ccc12` (stereo not shown) [Example 61, 3-(Pyridin-3-yl)-7-[1-phenylsulfonyl-6-(4-fluorophenyl)indol-3-ylcarbonyl]-1H,3H-pyrrolo[1,2-c]thiazole], the Ki turned out to be 1100 nM.
To `O=C(c1ccn2c1CSC2c1cccnc1)c1cn(C(=O)N2CCOCC2)c2ccccc12` (stereo not shown) [Example 11, 3-(Pyridin-3-yl)-7-[1-(morpholin-4-ylcarbonyl)indol-3-yl]carbonyl-1H,3H-pyrrolo[1,2-c]thiazole] belongs 225 nM; to `CN(C)C(=O)n1cc(C(=O)c2ccn3c2CSC3c2cccnc2)c2ccc(-c3ccccc3)cc21` (stereo not shown) [Example 52, 3-(Pyridin-3-yl)-7-(1-N,N-dimethylcarbamoyl-6-phenylindol-3-ylcarbonyl)-1H,3H-pyrrolo[1,2-c]thiazole Hydrochloride], 16 nM; to `CN(C)C(=O)n1cc(C(=O)c2ccn3c2CSC3c2cccnc2)c2ccc(OCc3ccccc3)cc21` (stereo not shown) [Example 7, 3-(Pyridin-3-yl)-7-(1-N,N-dimethylcarbamoyl-6-phenylmethoxyindol-3-yl)carbonyl-1H,3H-pyrrolo[1,2-c]thiazole], 17 nM.
Then `CC(C)(C)OC(=O)n1cc(C(=O)c2ccn3c2CSC3c2cccnc2)c2ccccc21` (stereo not shown) [Example 9, 3-(Pyridin-3-yl)-7-(1-tert-butyloxycarbonylindol-3-yl)carbonyl-1H,3H-pyrrolo[1,2-c]thiazole], with 110 nM; and `CN(C)C(=O)n1cc(C(=O)c2ccn3c2C[S+]([O-])C3c2ccc[n+]([O-])c2)c2ccc(-c3ccc(F)cc3)cc21` (stereo not shown) [Example 103, 2-Oxide-3-(1-oxide-pyridin-3-yl)-7-[1-N,N-dimethylcarbamoyl-6-(4-fluorophenyl)indole-3-ylcarbonyl]-1H,3H-pyrrolo[1,2-c]thiazole], with 85 nM.
